Experimental data: patent US10064848B2, “Pyridic ketone derivatives, method of preparing same, and pharmaceutical application thereof” (Shanghai Hengrui Pharmaceutical Co., Ltd., priority 2013, dated 2018)

Tests used:
[1] = target: T1, CYP3A4t (Homo sapiens, UniProt P08684); test: In vitro CYP enzyme inhibition, human liver microsomes; assay type: in vitro ADME; conditions: probe Testosterone, single point method
T1 construct: from tissue; host or cells: human liver microsomes
Procedure: (§1) Human liver microsome incubation system was used to reflect the activity of enzymes based on the amount of metabolites produced. Enzyme inhibition of the test compounds was investigated on CYP1A2, CYP2C9, […], CYP3A4m, CYP3A4t and CYP2C19, and IC50 values (a concentration of the test compound that is required for 50% inhibition of enzyme activity) were measured. […] The appropriate amount of test compound standard sample was weighed, and diluted with DMSO to 50 mM to obtain stock solution I. The stock solution I was diluted with PBS to 100 μM to obtain the reaction liquid which is to be used in incubation. [table] The reaction mixture was prepared: 60 μL [table] The above mixture was preincubated for 5 minutes at 37° C., followed by addition of 40 μL of NADPH (2.5 mM, PBS formulation). The mixture solution was incubated for 20 minutes at 37° C. All incubated samples were set to double samples. 300 μL ice-cold acetonitrile was added to terminate the reaction. The reaction solution was added with 100 μl internal standard, mixed uniformly, and centrifuged for 10 minutes at 3500 rpm. The supernatant was transferred to the LC-MS/MS analysis. The activity of enzymes was reflected by the production amount of metabolites. Using a single point method, the formula was calculated as follows: According to the known literature: IC50>10 μM belongs to weaker inhibition, 1 μM<IC50<10 μM belong to moderate inhibition, IC50<1 μM belong to strong inhibition.

[2] = target: T2, CYP3A4m (Homo sapiens, UniProt P08684); test: as above; assay type: in vitro ADME; conditions: probe Midazolam, single point method
T2 construct: from tissue; host or cells: human liver microsomes
T2 sequence (P08684 whole entry): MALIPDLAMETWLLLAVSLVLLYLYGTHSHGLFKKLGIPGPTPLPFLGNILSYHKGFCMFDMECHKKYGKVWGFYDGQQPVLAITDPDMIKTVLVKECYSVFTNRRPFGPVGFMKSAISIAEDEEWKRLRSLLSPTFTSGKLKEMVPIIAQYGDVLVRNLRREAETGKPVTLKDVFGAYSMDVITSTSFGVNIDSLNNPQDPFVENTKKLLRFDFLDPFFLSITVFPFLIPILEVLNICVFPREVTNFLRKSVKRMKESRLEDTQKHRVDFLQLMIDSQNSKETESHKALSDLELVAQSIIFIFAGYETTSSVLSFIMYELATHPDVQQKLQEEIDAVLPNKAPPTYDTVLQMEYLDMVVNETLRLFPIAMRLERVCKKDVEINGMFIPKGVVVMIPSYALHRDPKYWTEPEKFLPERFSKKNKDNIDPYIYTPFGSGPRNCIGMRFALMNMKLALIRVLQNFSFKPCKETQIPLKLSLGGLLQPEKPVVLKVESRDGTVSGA
Procedure: as §1

[3] = target: CYP2C6 (Homo sapiens, UniProt P10635); test: as above; assay type: in vitro ADME; conditions: single point method
CYP2C6, sequence (P10635 whole entry): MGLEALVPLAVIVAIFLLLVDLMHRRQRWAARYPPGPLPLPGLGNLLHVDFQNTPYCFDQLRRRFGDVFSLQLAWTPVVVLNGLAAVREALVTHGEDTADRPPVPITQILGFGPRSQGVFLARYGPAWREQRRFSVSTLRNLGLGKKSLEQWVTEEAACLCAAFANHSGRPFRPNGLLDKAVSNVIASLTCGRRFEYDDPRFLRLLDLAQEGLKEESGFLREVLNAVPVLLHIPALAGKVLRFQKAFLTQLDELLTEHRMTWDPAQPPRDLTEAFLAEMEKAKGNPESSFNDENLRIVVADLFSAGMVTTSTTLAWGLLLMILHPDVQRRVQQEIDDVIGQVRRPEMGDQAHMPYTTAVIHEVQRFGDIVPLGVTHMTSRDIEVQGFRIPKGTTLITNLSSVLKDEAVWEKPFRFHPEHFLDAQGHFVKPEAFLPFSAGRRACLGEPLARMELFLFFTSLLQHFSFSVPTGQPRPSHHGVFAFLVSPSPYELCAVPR
Procedure: as §1

[4] = target: T3, CYP2C19 (Homo sapiens, UniProt P33261); test: as above; assay type: in vitro ADME; conditions: probe (S)-Mephenytoin, single point method
T3 construct: from tissue; host or cells: human liver microsomes
T3 sequence (P33261 whole entry): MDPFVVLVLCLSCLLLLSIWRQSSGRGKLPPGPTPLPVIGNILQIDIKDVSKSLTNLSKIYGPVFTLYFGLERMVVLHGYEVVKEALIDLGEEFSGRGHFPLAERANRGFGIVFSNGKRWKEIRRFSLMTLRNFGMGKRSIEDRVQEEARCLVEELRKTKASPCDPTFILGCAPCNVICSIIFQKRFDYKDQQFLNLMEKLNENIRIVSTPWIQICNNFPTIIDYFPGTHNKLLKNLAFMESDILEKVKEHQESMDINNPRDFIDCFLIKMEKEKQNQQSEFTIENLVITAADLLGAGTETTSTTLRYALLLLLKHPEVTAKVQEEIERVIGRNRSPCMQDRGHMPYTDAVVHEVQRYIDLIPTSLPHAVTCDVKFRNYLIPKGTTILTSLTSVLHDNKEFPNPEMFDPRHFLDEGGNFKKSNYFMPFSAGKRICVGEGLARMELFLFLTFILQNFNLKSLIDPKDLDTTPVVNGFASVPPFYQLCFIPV
Procedure: as §1

[5] = target: T4, CYP2C9 (Homo sapiens, UniProt P11712); test: as above; assay type: in vitro ADME; conditions: probe Diclofenac, single point method
T4 construct: from tissue; host or cells: human liver microsomes
T4 sequence (P11712 whole entry): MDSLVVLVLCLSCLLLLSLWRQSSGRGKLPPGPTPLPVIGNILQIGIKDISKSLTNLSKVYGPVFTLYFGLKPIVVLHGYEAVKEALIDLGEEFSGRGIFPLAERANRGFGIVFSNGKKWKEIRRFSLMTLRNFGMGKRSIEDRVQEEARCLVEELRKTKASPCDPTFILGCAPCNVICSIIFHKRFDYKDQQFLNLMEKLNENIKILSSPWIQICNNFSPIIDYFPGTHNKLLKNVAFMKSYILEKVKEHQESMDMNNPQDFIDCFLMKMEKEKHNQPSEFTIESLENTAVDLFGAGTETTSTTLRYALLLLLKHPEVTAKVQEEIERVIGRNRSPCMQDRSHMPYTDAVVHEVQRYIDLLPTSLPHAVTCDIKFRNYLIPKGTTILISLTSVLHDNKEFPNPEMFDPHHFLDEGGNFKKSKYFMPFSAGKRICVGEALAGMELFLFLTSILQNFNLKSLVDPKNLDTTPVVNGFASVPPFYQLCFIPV
Procedure: as §1

[6] = target: T5, CYP1A2 (Homo sapiens, UniProt P05177); test: as above; assay type: in vitro ADME; conditions: probe Phenacetin, single point method
T5 construct: from tissue; host or cells: human liver microsomes
T5 sequence (P05177 1-516): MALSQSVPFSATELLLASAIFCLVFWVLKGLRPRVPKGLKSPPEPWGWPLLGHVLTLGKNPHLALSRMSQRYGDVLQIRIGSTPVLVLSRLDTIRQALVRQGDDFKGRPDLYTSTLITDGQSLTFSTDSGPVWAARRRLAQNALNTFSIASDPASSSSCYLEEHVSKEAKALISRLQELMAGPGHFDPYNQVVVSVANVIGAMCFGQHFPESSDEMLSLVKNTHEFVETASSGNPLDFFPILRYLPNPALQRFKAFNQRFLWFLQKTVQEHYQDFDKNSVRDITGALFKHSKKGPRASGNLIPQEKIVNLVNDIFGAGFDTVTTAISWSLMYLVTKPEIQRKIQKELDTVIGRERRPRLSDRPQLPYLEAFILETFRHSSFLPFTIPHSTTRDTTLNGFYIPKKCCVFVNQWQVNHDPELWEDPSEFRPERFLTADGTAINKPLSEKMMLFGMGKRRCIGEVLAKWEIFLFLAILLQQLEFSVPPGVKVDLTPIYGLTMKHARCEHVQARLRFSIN
Procedure: as §1

[7] = target: T6, MEK1 (Recombinant Human Protein) (Homo sapiens, UniProt Q02750); test: MEK1 kinase inhibition assay (Z'-LYTE Kinase Assay Kit-Ser/Thr 03 Peptide); assay type: biochemical; conditions: 4 hours at 37° C, read-out: IC50 for inhibiting MEK kinase (MEK1)
T6 construct: purchased Invitrogen PV3093
T6 sequence (Q02750 whole entry): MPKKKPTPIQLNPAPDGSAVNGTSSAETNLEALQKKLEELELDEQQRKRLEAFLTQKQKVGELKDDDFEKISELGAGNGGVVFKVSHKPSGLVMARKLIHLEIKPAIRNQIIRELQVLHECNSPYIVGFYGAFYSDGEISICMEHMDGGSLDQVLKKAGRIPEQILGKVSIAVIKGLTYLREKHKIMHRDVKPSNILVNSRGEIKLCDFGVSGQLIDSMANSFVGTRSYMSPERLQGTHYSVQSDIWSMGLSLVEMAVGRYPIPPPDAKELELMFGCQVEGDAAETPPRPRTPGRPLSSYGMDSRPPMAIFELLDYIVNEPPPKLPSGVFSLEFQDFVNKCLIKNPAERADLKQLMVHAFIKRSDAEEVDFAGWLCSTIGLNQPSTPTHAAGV
Procedure: MEK1 kinase activity was tested in vitro by the following method.
MEK kinase used in the assay: MEK1 (Recombinant Human Protein, Invitrogen, Catalog No. PV3093).
Kit used in the assay: Z′-LYTE™ Kinase Assay Kit-Ser/Thr 03 Peptide (Invitrogen, Catalog No. PV3176).
The following in vitro assay was used to determine the activity of the compounds of the present invention for inhibiting the […] MEK kinase. The test compound was dissolved in dimethyl sulfoxide to the desired concentration. 1× Buffer A (Invitrogen, Catalog No. PV3189) was prepared, ATP was diluted with 1× Buffer A to obtain 400 μM ATP solution, appropriate amounts of Z′-LYTE™ Ser/Thr 03 Peptide (Invitrogen, Catalog No. PV3200), MEK kinase (MEK1) Enzymes and 1× Buffer A were mixed, and appropriate amounts of Z′-LYTE™ Ser/Thr 03 phosphoPeptide substrate (Invitrogen, Catalog No. PV3215) and 1× Buffer A were formulated into a mixture to be tested. The 4% DMSO solution of the test compound was prepared from 1× buffer and DMSO solution of the test compound. 2.5 μL DMSO solution of the test compound was added to a reaction well, and then 1× Buffer A, 2.5 μL of 400 μM ATP solution, 5 μL of enzyme and substrate mixture were added to become a 10 μL of reaction system. The reaction system was incubated for 4 hours at 37° C., and a mixture was prepared according to Reagent A:Buffer B=1:1024. 5 μL of a mixture of Reagent A (Invitrogen, Catalog No. PV3295) and Buffer B (Invitrogen, Catalog No. P3127) was added to a reaction well, the reaction system was incubated for 60 minutes at 25° C. The fluorescence was read by a NovoStar ELISA with excitation wavelength: 400 nm, and emission wavelength: 445 nm and 520 nm.
The activity of the compounds of the present invention: The above assay was used to determine the biochemical activity of the compounds of the present invention for inhibiting MEK kinase (MEK1).

[8] = tested on: Colo205 cell; test: Proliferation inhibition on Colo205 (CCK8); assay type: cell-based; conditions: Homo sapiens, COLO 205, Colo205, 72 hours
Text: Cell line used in the assay: Colo205 (Cell Bank of the Chinese Academy of Sciences, Catalog No. TCHu102).
The following in vitro cell assay is to determine the activity of the compounds of the present invention for inhibiting the proliferation of human colon cancer cell, and the activity is expressed as IC50. General programs of this kind of assay were as follows: First, the cell line to be tested (purchased from Cell Bank of the Chinese Academy of Sciences) was inoculated in a 96-well culture plate with a suitable cell concentration of 4000 cells/mL medium, and was cultured in a carbon dioxide incubator at 37° C., then grown overnight. The medium was replaced by new medium added with a series of concentrations (10000 nM, 1000 nM, 100 nM, 10 nM, 1 nM, 0.1 nM) of the test compound solutions. The plates were placed back in the incubator, and continuously cultured for 72 hours. After 72 hours, CCK8 (Cell Counting Kit-8, Catalog No.: CK04, purchased from colleagues chemical company) method was used to determine the proliferation inhibition activity of the test compounds. IC50 values were calculated from the inhibition data of the test compounds at a series of different concentrations.
The above assay was used to determine the biochemical activity of the compounds of the present invention.

T1 sequence (P08684 whole entry): as the sequence (P08684 whole entry) above

| SMILES | IC50 [1] | IC50 [2] | IC50 [3] | IC50 [4] | IC50 [5] | IC50 [6] | IC50 [7] | IC50 [8] |
| --- | --- | --- | --- | --- | --- | --- | --- | --- |
| CC(=O)Nc1cccc(Oc2cc(=O)n(C)c(Nc3ccc(I)cc3F)c2C(N)=O)c1C [Example 4, 4-(3-acetamido-2-methylphenoxy)-2-((2-fluoro-4-iodophenyl)amino)-1-methyl-6-oxo-1,6-dihydropyridine-3-carboxamide] | > 50000 nM | > 50000 nM | > 50000 nM | > 10000 nM | > 50000 nM | > 10000 nM | 4 nM | 0.8 nM |
| Cc1cncc(Oc2cc(=O)n(C)c(Nc3ccc(I)cc3F)c2C(N)=O)c1 [Example 30, 2-((2-fluoro-4-iodophenyl)amino)-1-methyl-4-((5-methylpyridin-3-yl)oxy)-6-oxo-1,6-dihydropyridine-3-carboxamide] | > 10000 nM | > 10000 nM | > 10000 nM | > 10000 nM | > 10000 nM | > 10000 nM | 6 nM | – |
| Cc1ccc(F)cc1Oc1cc(=O)n(C)c(Nc2ccc(I)cc2F)c1C(N)=O [Example 25, 4-(5-fluoro-2-methylphenoxy)-2-((2-fluoro-4-iodophenyl)amino)-1-methyl-6-oxo-1,6-dihydropyridine-3-carboxamide] | – | – | – | – | – | – | 5.9 nM | 1 nM |
| Cc1c(Oc2cc(=O)n(C)c(Nc3ccc(I)cc3F)c2C(N)=O)cccc1C(=O)NC1CC1 [Example 11, 4-(3-(cyclopropylcarbamoyl)-2-methylphenoxy)-2-((2-fluoro-4-iodophenyl)amino)-1-methyl-6-oxo-1,6-dihydropyridine-3-carboxamide] | – | – | – | – | – | – | 5.5 nM | 4.3 nM |
| Cc1cc(Oc2cc(=O)n(C)c(Nc3ccc(I)cc3F)c2C(N)=O)ccn1 [Example 32, 2-((2-fluoro-4-iodophenyl)amino)-1-methyl-4-((2-methylpyridin-4-yl)oxy)-6-oxo-1,6-dihydropyridine-3-carboxamide] | – | – | – | – | – | – | 5.5 nM | 4 nM |
| Cc1c(O)cccc1Oc1cc(=O)n(C)c(Nc2ccc(I)cc2F)c1C(N)=O [Example 24, 4-(3-hydroxy-2-methylphenoxy)-2-((2-fluoro-4-iodophenyl)amino)-1-methyl-6-oxo-1,6-dihydropyridine-3-carboxamide] | – | – | – | – | – | – | 4 nM | 3.1 nM |
